{"source": "patent US9975896B2", "about": "“Inhibitors of transcription factors and uses thereof” (Dana-Farber Cancer Institute, Inc., priority 2013, dated 2018)", "key": {"[1]": {"molecular_target": "BRDT(2) (Homo sapiens, UniProt Q58F21)", "assay": "BromoScan selectivity panel (Kd)", "format": "binding"}, "[2]": {"test_system": "BRD4-dependent Nut-Midline Carcinoma line 797", "assay": "Cell viability (ATPlite) in BRD4 dependant cell line 797", "details": "for EC50: Homo sapiens"}, "[3]": {"molecular_target": "T1, BAZ2B (Homo sapiens, UniProt Q9UIF8)", "T1 sequence (Q9UIF8 2054-2168 limits assumed)": "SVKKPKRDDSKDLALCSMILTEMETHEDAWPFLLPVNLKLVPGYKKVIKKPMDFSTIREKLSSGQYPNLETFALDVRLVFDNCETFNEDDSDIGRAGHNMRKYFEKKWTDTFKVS", "assay": "BromoScan selectivity panel (Kd)", "format": "binding"}, "[4]": {"molecular_target": "T2, BRD3(1) (Homo sapiens, UniProt Q15059)", "T2 construct": "the bromodomain-containing protein is BRD3(1)", "T2 sequence (Q15059 34-140 limits assumed)": "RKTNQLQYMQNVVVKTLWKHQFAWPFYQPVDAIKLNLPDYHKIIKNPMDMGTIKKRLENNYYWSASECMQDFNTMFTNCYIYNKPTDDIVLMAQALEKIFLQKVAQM", "assay": "BromoScan selectivity panel (Kd)", "format": "binding"}, "[5]": {"molecular_target": "T3, BRD3(2) (Homo sapiens, UniProt Q15059)", "T3 construct": "the bromodomain-containing protein is BRD3(2)", "T3 sequence (Q15059 306-415 limits assumed)": "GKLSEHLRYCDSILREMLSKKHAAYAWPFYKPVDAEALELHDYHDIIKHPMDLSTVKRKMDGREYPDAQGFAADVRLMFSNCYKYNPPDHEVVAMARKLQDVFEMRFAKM", "assay": "BromoScan selectivity panel (Kd)", "format": "binding"}, "[6]": {"molecular_target": "T4, ATAD2A (Homo sapiens, UniProt Q6PL18)", "T4 sequence (Q6PL18 981-1108 limits assumed)": "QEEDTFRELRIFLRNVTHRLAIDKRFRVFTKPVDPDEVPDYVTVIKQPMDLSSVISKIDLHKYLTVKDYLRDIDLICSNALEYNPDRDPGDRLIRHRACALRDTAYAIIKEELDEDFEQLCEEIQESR", "assay": "BromoScan selectivity panel (Kd)", "format": "binding"}, "[7]": {"molecular_target": "T5, BRD4(2) (Homo sapiens, UniProt O60885)", "T5 construct": "the bromodomain-containing protein is BRD4(2)", "assay": "BromoScan selectivity panel (Kd)", "format": "binding"}, "[8]": {"molecular_target": "T6, TAF1L(2) (Homo sapiens, UniProt Q8IZX4)", "T6 construct": "TAF1L(2)", "T6 sequence (Q8IZX4 1517-1626 limits assumed)": "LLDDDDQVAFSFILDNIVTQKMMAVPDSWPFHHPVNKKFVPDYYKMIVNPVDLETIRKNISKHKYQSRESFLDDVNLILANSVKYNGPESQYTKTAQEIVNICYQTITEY", "assay": "BromoScan selectivity panel (Kd)", "format": "binding"}, "[9]": {"molecular_target": "T7, BRD2(1) (Homo sapiens, UniProt P25440)", "T7 construct": "the bromodomain-containing protein is BRD2(1)", "T7 sequence (P25440 74-180 limits assumed)": "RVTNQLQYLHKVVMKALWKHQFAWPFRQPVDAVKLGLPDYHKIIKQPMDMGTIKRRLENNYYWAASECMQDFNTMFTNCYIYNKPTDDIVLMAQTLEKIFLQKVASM", "assay": "BromoScan selectivity panel (Kd)", "format": "binding"}, "[10]": {"molecular_target": "CBP (Homo sapiens, UniProt Q92793)", "sequence (Q92793 1081-1197 limits assumed)": "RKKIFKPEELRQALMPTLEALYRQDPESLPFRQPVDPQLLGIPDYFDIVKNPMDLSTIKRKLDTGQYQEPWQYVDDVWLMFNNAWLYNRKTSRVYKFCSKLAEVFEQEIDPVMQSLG", "assay": "BromoScan selectivity panel (Kd)"}, "[11]": {"molecular_target": "T8, BRD2(2) (Homo sapiens, UniProt P25440)", "T8 construct": "the bromodomain-containing protein is BRD2(2)", "T8 sequence (P25440 344-453 limits assumed)": "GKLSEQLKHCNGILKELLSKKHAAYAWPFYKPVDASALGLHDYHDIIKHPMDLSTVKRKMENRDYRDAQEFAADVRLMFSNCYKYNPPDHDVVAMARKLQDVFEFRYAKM", "assay": "BromoScan selectivity panel (Kd)", "format": "binding"}, "[12]": {"molecular_target": "T9, BRD9 (Homo sapiens, UniProt Q9H8M2)", "T9 sequence (Q9H8M2 130-250 limits assumed)": "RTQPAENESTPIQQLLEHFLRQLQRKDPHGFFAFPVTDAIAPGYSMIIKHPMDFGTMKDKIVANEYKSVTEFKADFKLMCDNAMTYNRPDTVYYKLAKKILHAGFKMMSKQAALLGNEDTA", "assay": "BromoScan selectivity panel (Kd)", "format": "binding"}, "[13]": {"molecular_target": "BRD4 (Homo sapiens, UniProt O60885)", "assay": "In vitro AlphaScreen protein binding assay (competition with biotinylated JQ1)", "details": "for IC50: AlphaScreen"}, "[14]": {"molecular_target": "T10, TAF1(2) (Homo sapiens, UniProt P21675)", "T10 construct": "TAF1(2)", "T10 sequence (P21675 1519-1628 limits assumed)": "T6 sequence (Q8IZX4 1517-1626 limits assumed) with M46V, V51M, I102V, I107L", "assay": "BromoScan selectivity panel (Kd)", "format": "binding"}, "[15]": {"molecular_target": "T11, BRPF1 (Homo sapiens, UniProt P55201)", "T11 sequence (P55201 626-740 limits assumed)": "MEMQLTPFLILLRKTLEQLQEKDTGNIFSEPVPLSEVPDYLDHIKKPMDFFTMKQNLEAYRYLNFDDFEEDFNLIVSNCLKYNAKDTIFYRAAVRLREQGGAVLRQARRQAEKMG", "assay": "BromoScan selectivity panel (Kd)", "format": "binding"}, "[16]": {"molecular_target": "T12, WDR9(2) (Homo sapiens, UniProt Q9NSI6)", "T12 construct": "WDR9(2)", "T12 sequence (Q9NSI6 1313-1418 limits assumed)": "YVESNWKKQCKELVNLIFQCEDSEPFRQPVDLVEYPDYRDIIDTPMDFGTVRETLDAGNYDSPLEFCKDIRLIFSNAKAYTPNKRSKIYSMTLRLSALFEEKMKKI", "assay": "BromoScan selectivity panel (Kd)", "format": "binding"}, "[17]": {"molecular_target": "FALZ (Homo sapiens, UniProt Q12830)", "assay": "BromoScan selectivity panel (Kd)", "format": "binding"}, "[18]": {"molecular_target": "T13, PERM1(2) (Homo sapiens, UniProt Q86U86)", "T13 construct": "PERM1(2)", "T13 sequence (Q86U86 177-287 limits assumed)": "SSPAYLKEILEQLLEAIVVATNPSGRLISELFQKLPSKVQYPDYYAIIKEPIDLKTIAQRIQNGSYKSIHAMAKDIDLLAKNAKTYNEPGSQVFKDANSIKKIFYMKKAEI", "assay": "BromoScan selectivity panel (Kd)", "format": "binding"}, "[19]": {"molecular_target": "T14, ATAD2B (Homo sapiens, UniProt Q9ULI0)", "T14 sequence (Q9ULI0 953-1085 limits assumed)": "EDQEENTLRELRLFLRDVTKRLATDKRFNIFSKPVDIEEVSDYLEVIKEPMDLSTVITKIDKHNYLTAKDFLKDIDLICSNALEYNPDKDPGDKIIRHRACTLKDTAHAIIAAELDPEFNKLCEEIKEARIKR", "assay": "BromoScan selectivity panel (Kd)", "format": "binding"}}, "note": "Substitutions are numbered along the chain they refer to. Where two headings read alike, the source gives them in different places."}
{"smiles": "Cc1noc(C)c1-c1ccc(-c2nc3cnccn3c2NC(C)(C)C)cc1", "note": "[UMB32, N-(tert-butyl)-2-(4-(3,5-dimethylisoxazol-4-yl)phenyl)imidazo[1,2-a]pyrazin-3-amine]", "values": [{"measurement": "Kd", "setting": "[1]; Table 8, read-out: Kd (nM) BRDT(2)", "value": 75, "unit": "nM"}, {"measurement": "Kd", "setting": "[1]; Table 9, read-out: BromoScan Kd, nM BRDT(2)", "value": 75, "unit": "nM"}, {"measurement": "EC50", "setting": "[2]", "value": 1.13, "unit": "µM"}, {"measurement": "EC50", "setting": "[2]; read-out: 797--EC50 (μM)", "value": 0.724, "unit": "µM"}, {"measurement": "EC50", "setting": "[2]; read-out: BRD4 EC50 (μM)", "value": 1.1, "unit": "µM"}, {"measurement": "cellular activity in the BRD4 dependant cell line", "setting": "[2]; text b618, b620", "value": "shows cellular activity in the BRD4 dependant cell line"}, {"measurement": "Kd", "setting": "[3]; Table 8, read-out: Kd (nM) BAZ2B", "value": "≥ 40000", "unit": "nM"}, {"measurement": "Kd", "setting": "[3]; Table 9, read-out: BromoScan Kd, nM BAZ2B", "value": "≥ 40000", "unit": "nM"}, {"measurement": "Kd", "setting": "[4]; Table 8, read-out: Kd (nM) BRD3(1)", "value": 35, "unit": "nM"}, {"measurement": "Kd", "setting": "[4]; Table 9, read-out: BromoScan Kd, nM BRD3(1)", "value": 35, "unit": "nM"}, {"measurement": "Kd", "setting": "[5]; Table 8, read-out: Kd (nM) BRD3(2)", "value": 38, "unit": "nM"}, {"measurement": "Kd", "setting": "[5]; Table 9, read-out: BromoScan Kd, nM BRD3(2)", "value": 38, "unit": "nM"}, {"measurement": "Kd", "setting": "[6]; Table 8, read-out: Kd (nM) ATAD2A", "value": "≥ 40000", "unit": "nM"}, {"measurement": "Kd", "setting": "[6]; Table 9, read-out: BromoScan Kd, nM ATAD2A", "value": "≥ 40000", "unit": "nM"}, {"measurement": "Kd", "setting": "[7]; Table 8, read-out: Kd (nM) BRD4(2)", "value": 31, "unit": "nM"}, {"measurement": "Kd", "setting": "[7]; Table 9, read-out: BromoScan Kd, nM BRD4(2)", "value": 31, "unit": "nM"}, {"measurement": "Kd", "setting": "[8]; Table 8, read-out: Kd (nM) TAF1L(2)", "value": 1300, "unit": "nM"}, {"measurement": "Kd", "setting": "[8]; Table 9, read-out: BromoScan Kd, nM TAF1L(2)", "value": 1300, "unit": "nM"}, {"measurement": "Kd", "setting": "[9]; Table 8, read-out: Kd (nM) BRD2(1)", "value": 94, "unit": "nM"}, {"measurement": "Kd", "setting": "[9]; Table 9, read-out: BromoScan Kd, nM BRD2(1)", "value": 94, "unit": "nM"}, {"measurement": "Kd", "setting": "[10]; read-out: BromoScan Kd, nM CREBBP, Table 9", "value": 4500, "unit": "nM"}, {"measurement": "Kd", "setting": "[10]; read-out: Kd (nM) CBP, Table 8", "value": 4500, "unit": "nM"}, {"measurement": "Kd", "setting": "[11]; Table 8, read-out: Kd (nM) BRD2(2)", "value": 95, "unit": "nM"}, {"measurement": "Kd", "setting": "[11]; Table 9, read-out: BromoScan Kd, nM BRD2(2)", "value": 95, "unit": "nM"}, {"measurement": "Kd", "setting": "[12]; Table 8, read-out: Kd (nM) BRD9", "value": "≥ 40000", "unit": "nM"}, {"measurement": "Kd", "setting": "[12]; Table 9, read-out: BromoScan Kd, nM BRD9", "value": "≥ 40000", "unit": "nM"}, {"measurement": "IC50", "setting": "[13]; BRD4 IC50 (μM), Table 3", "value": 0.26, "unit": "µM"}, {"measurement": "IC50", "setting": "[13]; IC50 (M), Table 1, in vitro, inhibiting the activity of BRD4", "value": 0.256, "unit": "µM"}, {"measurement": "inhibition of the activity of BRD4 in vitro", "setting": "[13]; text b614, b618", "value": "active in inhibiting the activity of BRD4 in vitro"}, {"measurement": "Kd", "setting": "[14]; Table 8, read-out: Kd (nM) TAF1(2)", "value": 560, "unit": "nM"}, {"measurement": "Kd", "setting": "[14]; Table 9, read-out: BromoScan Kd, nM TAF1(2)", "value": 560, "unit": "nM"}, {"measurement": "Kd", "setting": "[15]; Table 8, read-out: Kd (nM) BRPF1", "value": "≥ 40000", "unit": "nM"}, {"measurement": "Kd", "setting": "[15]; Table 9, read-out: BromoScan Kd, nM BRPF1", "value": "≥ 40000", "unit": "nM"}, {"measurement": "Kd", "setting": "[16]; Table 8, read-out: Kd (nM) WDR9(2)", "value": "≥ 40000", "unit": "nM"}, {"measurement": "Kd", "setting": "[16]; Table 9, read-out: BromoScan Kd, nM WDR9(2)", "value": "≥ 40000", "unit": "nM"}, {"measurement": "Kd", "setting": "[17]; Table 8, read-out: Kd (nM) FALZ", "value": "≥ 40000", "unit": "nM"}, {"measurement": "Kd", "setting": "[17]; Table 9, read-out: BromoScan Kd, nM FALZ", "value": "≥ 40000", "unit": "nM"}, {"measurement": "Kd", "setting": "[18]; Table 8, read-out: Kd (nM) PERM1(2)", "value": "≥ 40000", "unit": "nM"}, {"measurement": "Kd", "setting": "[18]; Table 9, read-out: BromoScan Kd, nM PERM1(2)", "value": "≥ 40000", "unit": "nM"}, {"measurement": "Kd", "setting": "[19]; Table 8, read-out: Kd (nM) ATAD2B", "value": "≥ 40000", "unit": "nM"}, {"measurement": "Kd", "setting": "[19]; Table 9, read-out: BromoScan Kd, nM ATAD2B", "value": "≥ 40000", "unit": "nM"}]}
